Article PMC9826346, “One‐Pot Chemoenzymatic Synthesis of Microviridin Analogs Containing Functional Tags” (Chembiochem, 2022)
Bridge positions count the residues as written; N and C are the ends. Peptide text beside a SMILES is read from it. * marks the point of attachment. Biotin = O=C1N[C@H]2[C@H](CS[C@H]2CCCCC(=O)*)N1; Dansyl = CN(C)c1cccc2c(S(=O)(=O)*)cccc12; Propargyl = C#CC*

Columns and labels:
[1] = biological target: porcine pancreas elastase (Sus scrofa, UniProt P00772); experiment: biochemical
Method: (§1) Protease inhibition assay: Microviridins were checked for their inhibitory activity against trypsin and elastase. Therefore, microviridin concentrations of 0.01 μM, 0.1 μM, 1 μM, 10 μM and 100 μM were tested. A sample without microviridin was used as control. As substrates N α‐Benzoyl‐DL‐arginine 4‐nitroanilide hydrochloride (BAPNA) was used for the trypsin assay and N‐Succinyl‐Ala‐Ala‐Ala‐p‐nitroanilide (Suc‐AAA‐pNA) for the elastase assays. The trypsin assay was performed with 16.7 μg/mL (approximately 42.7 U/mL) bovine trypsin (Carl Roth (Germany)) and 108.5 μg/mL BAPNA (Sigma‐Aldrich (Germany)) in 50 mM Tris‐HCl, 20 mM CaCl2, 0.5 % DMSO, pH 7.5. The elastase assay was performed with 50 μg/mL (250 mU/mL) porcine pancreas elastase (Sigma‐Aldrich (Germany) and 500 μg/mL Suc‐AAA‐pNA (Sigma‐Aldrich (Germany)) in 50 mM Tris‐HCl, 20 mM CaCl2, pH 7.5. All microviridins were dissolved in water to a concentration of 500 μM except of tricyclic MvB_CP_N(dansyl), which was dissolved in water containing 10 % DMSO. Before adding the substrate, each enzyme was incubated for 5 min with the respective inhibitor at room temperature. Afterwards, the substrate was added, and the assays were incubated for 15 min (elastase assay) and 30 min (trypsin assay) at 37 °C. The enzymatic activity was measured spectrophotometrically (Varioscan Flash, Thermo Scientific) at 410 nm. The assays were done twice for each sample. IC50 values were calculated using the Quest Graph™ IC50 Calculator.[21]

[2] = biological target: bovine trypsin (Bos taurus, UniProt P00760); experiment: biochemical
Method: as §1

[3] = biological target: trypsin; conditions: read-out: KD for the interaction of trypsin and microviridin J; cited from earlier work
From the text: Naturally, microviridins act as competitive inhibitors that bind tightly to their corresponding proteases in a substrate‐like manner, for which turnover is excluded. […] Therefore, the chemical probes that show protease inhibition in the range of the unmodified microviridin derivatives could be expected to work as molecular tools. However, since the activity of dansylated microviridin B is clearly compromised (Table 1), the compound's affinity for elastase might not be strong enough for diagnos ...

[4] = test system: Daphnia; conditions: microcrustaceans of the genus Daphnia; cited from earlier work
From the text: While the bioactivity and mode of action against mammalian serine proteases is well investigated for microviridins[[2a], [8]] and plesiocin,[9] their ecological roles and native targets remain elusive. […] However, neither specific protease targets could be identified, nor could a mode of action be specified. One hypothesis is based on the depletion of the amino acid pool essential for ...

Chain of porcine pancreas elastase (P00772 27-266): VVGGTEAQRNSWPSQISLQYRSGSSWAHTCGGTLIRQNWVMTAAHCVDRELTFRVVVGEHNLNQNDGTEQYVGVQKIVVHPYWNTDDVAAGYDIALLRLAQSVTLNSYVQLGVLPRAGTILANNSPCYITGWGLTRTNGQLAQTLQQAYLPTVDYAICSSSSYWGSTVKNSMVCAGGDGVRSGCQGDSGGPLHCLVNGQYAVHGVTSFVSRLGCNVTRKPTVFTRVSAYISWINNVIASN
Chain of bovine trypsin (P00760 24-246): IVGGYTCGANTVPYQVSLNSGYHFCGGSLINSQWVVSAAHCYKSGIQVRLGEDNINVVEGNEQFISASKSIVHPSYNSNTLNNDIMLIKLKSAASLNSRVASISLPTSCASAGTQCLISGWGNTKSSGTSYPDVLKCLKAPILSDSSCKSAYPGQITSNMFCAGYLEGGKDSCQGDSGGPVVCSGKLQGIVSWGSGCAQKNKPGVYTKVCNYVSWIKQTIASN

In the case of CC(C)C[C@@H]1NC(=O)[C@@H](NC(=O)[C@@H](NC(=O)CNC(=O)[C@H](Cc2ccccc2)NC(=O)[C@@H](N)CCCCNC(=O)CCCC[C@@H]2SC[C@@H]3NC(=O)N[C@@H]32)[C@@H](C)O)[C@@H](C)OC(=O)C[C@@H]2NC(=O)[C@@H]3COC(=O)CC[C@H](NC(=O)[C@H](Cc4c[nH]c5ccccc45)NC2=O)C(=O)N[C@H](C(=O)N[C@@H](Cc2ccc(O)cc2)C(=O)O)CCC(=O)NCCCC[C@H](NC1=O)C(=O)N[C@@H](Cc1ccc(O)cc1)C(=O)N1CCC[C@H]1C(=O)N3 [MvB_CP_N(Bio)cy3 (5)] (H-K(Biotin)FGTTLKYPSDWEEY-OH; ester 5-11, 10-13; lactam 7-14), the IC50 [1] is reported as 1240 ± 640 nM.
CC(C)C[C@@H]1NC(=O)[C@@H](NC(=O)[C@@H](NC(=O)CNC(=O)[C@H](Cc2ccccc2)NS(=O)(=O)c2cccc3c(N(C)C)cccc23)[C@@H](C)O)[C@@H](C)OC(=O)C[C@@H]2NC(=O)[C@@H]3COC(=O)CC[C@H](NC(=O)[C@H](Cc4c[nH]c5ccccc45)NC2=O)C(=O)N[C@H](C(=O)N[C@@H](Cc2ccc(O)cc2)C(=O)O)CCC(=O)NCCCC[C@H](NC1=O)C(=O)N[C@@H](Cc1ccc(O)cc1)C(=O)N1CCC[C@H]1C(=O)N3 [MvB_CP_N(Dansyl)cy3 (6)] (Dansyl-FGTTLKYPSDWEEY-OH; ester 4-10, 9-12; lactam 6-13) gave an IC50 [1] of 28000 ± 7170 nM.
CC(C)C[C@@H]1NC(=O)[C@@H](NC(=O)[C@@H](NC(=O)CNC(=O)[C@@H](N)Cc2ccccc2)[C@@H](C)O)[C@@H](C)OC(=O)C[C@@H]2NC(=O)[C@@H]3COC(=O)CC[C@H](NC(=O)[C@H](Cc4c[nH]c5ccccc45)NC2=O)C(=O)N[C@H](C(=O)N[C@@H](Cc2ccc(O)cc2)C(=O)O)CCC(=O)NCCCC[C@H](NC1=O)C(=O)N[C@@H](Cc1ccc(O)cc1)C(=O)N1CCC[C@H]1C(=O)N3 [MvB_CPcy3 (4)] (H-FGTTLKYPSDWEEY-OH; ester 4-10, 9-12; lactam 6-13) showed an IC50 [1] of 330 ± 20 nM.
CC[C@H](C)[C@H](NC(=O)[C@@H](N)CCCCNC(=O)CCCC[C@@H]1SC[C@@H]2NC(=O)N[C@@H]21)C(=O)N[C@@H](CO)C(=O)N[C@@H]1C(=O)N[C@@H](CCCNC(=N)N)C(=O)N[C@H]2CCCCNC(=O)CC[C@@H](C(=O)N[C@@H](Cc3c[nH]c4ccccc34)C(=O)O)NC(=O)[C@@H]3CCC(=O)OC[C@H](NC(=O)[C@@H]4CCCN4C(=O)[C@H](Cc4ccc(O)cc4)NC2=O)C(=O)N[C@@H](CC(=O)O[C@@H]1C)C(=O)N[C@@H](Cc1c[nH]c2ccccc12)C(=O)N3 [MvJ_CP_N(Bio)cy3 (2)] (H-K(Biotin)ISTRKYPSDWEEW-OH; ester 4-10, 9-12; lactam 6-13) gave an IC50 [2] of 3530 ± 300 nM.
Work on C#CCOc1ccc(C[C@H](N)C(=O)N[C@H](C(=O)N[C@@H](CO)C(=O)N[C@@H]2C(=O)N[C@@H](CCCNC(=N)N)C(=O)N[C@H]3CCCCNC(=O)CC[C@@H](C(=O)N[C@@H](Cc4c[nH]c5ccccc45)C(=O)O)NC(=O)[C@@H]4CCC(=O)OC[C@H](NC(=O)[C@@H]5CCCN5C(=O)[C@H](Cc5ccc(O)cc5)NC3=O)C(=O)N[C@@H](CC(=O)O[C@@H]2C)C(=O)N[C@@H](Cc2c[nH]c3ccccc23)C(=O)N4)[C@@H](C)CC)cc1 [MvJ_CP_N(Prop)cy3 (3)] (H-Y(Propargyl)ISTRKYPSDWEEW-OH; ester 4-10, 9-12; lactam 6-13) yielded an IC50 [2] of 1640 ± 120 nM.
With CC[C@H](C)[C@H](N)C(=O)N[C@@H](CO)C(=O)N[C@@H]1C(=O)N[C@@H](CCCNC(=N)N)C(=O)N[C@H]2CCCCNC(=O)CC[C@@H](C(=O)N[C@@H](Cc3c[nH]c4ccccc34)C(=O)O)NC(=O)[C@@H]3CCC(=O)OC[C@H](NC(=O)[C@@H]4CCCN4C(=O)[C@H](Cc4ccc(O)cc4)NC2=O)C(=O)N[C@@H](CC(=O)O[C@@H]1C)C(=O)N[C@@H](Cc1c[nH]c2ccccc12)C(=O)N3 [MvJ_CPcy3 (1)] (H-ISTRKYPSDWEEW-OH; ester 3-9, 8-11; lactam 5-12) the IC50 [2] was 1090 ± 90 nM.
In the case of microviridin J, the Kd [3] is listed as 680 nM and the “Effect on Daphnia” value [4] is listed as “lethal molting disruption”.
